Columns and labels:
[1] = Oral care application of formulated dentifrice or oral wash; format: in vivo; settings: formulated as oral dentifrice or oral wash
Source text: A sample of tin(II) L-lactate (Example 2) is formulated as an oral dentifrice or oral wash, using additives and methods as known in the art.

[2] = Physical properties of the solid (hygroscopicity, flow); format: physicochemical; settings: versus stannous chloride dihydrate
Source text: Thus, tin(II) lactate is observed to be a non-hygroscopic, and therefore an easily handlable free-flowing powder. In addition, tin(II) lactate is observed to be non-corrosive.
In addition, tin(II) lactate is observed to be non-corrosive toward standard industrial equipment.

| SMILES | retention of Sn(II) ion on oral surfaces ([1]; applied for about 5 to about 10 minutes) | plaque formation and/or dental caries ([1]; compared with a control group which lacks the Sn(II) application) | hygroscopicity / powder behaviour [2] |
| --- | --- | --- | --- |
| C[C@H](O)C(=O)[O-].C[C@H](O)C(=O)[O-].[Sn+2] [tin(II) L-lactate, Tin(II) L-lactate] | successfully results in retention of Sn(II) ion on oral surfaces | reduces plaque formation and/or dental caries | – |
| CC(O)C(=O)[O-].CC(O)C(=O)[O-].[Sn+2] (stereo not drawn) [tin(II) lactate, Tin(II) Lactate] | – | – | non-hygroscopic, free-flowing powder |
